According to PubChem BioAssay AID2060505 (Molecular Pharmacology Branch, DTP, NCI, 2025):
pIC50: −log10 of the molar value.

Tested on: 633275-114-R-J1-PDC complex spheroids, viability
Assay: Anticancer human tumor 633275-114-R-J1-PDC patient-derived endometrial adenocarcinoma cell line growth inhibition [GQUAD]
Settings: for pIC50: curve of first compound; for viability, T/C: stronger effect = lower value
From the text: DNA G-quadruplex Stabilizer Agents in Combinations in Complex Spheroids
A high-throughput screen of multi-cell type tumor spheroids was designed to identify active combinations of DNA G-quadruplex stabilizer agents and targeted small molecules. Complex spheroids include a stromal component modeled by human endothelial cells (HUVEC) and fibroblasts modeled by human mesenchymal stem cells (MSCs). The concentration ranges selected for each drug and investigational agent were based upon clinically achievable concentrations if the clinical Cmax of the agent was known.
Compounds. The drugs and investigational agents: pidnarulex (CX-5461; NSC782164), APTO-253 (NSC789042), BRACO-19 (NSC847499), peposertib (NSC802822), ceralasertib (NSC780249), elimusertib (NSC800525), camonsertib (NSC841442), AZD-1390 (NSC803789), olaparib (NSC753686), talazoparib (NSC767125), ART-558 (NSC835418), sotorasib (NSC818433), MRTX-1133 (NSC836407), SN-38 (NSC673596), topotecan (NSC609699), etoposide (NSC141540), doxorubicin (NSC123127), gemcitabine (NSC613327), 5-fluorouracil (NSC19893), paclitaxel (NSC125973), vemurafenib (NSC761431), panobinostat (NSC761190), R-306465 (JNJ-16241199; NSC773264), adavosertib (NSC754352), TP-3654 (NSC805149), carboplatin (NSC241240), KSQ-4279 (NSC840948), and staurosporine (NSC755774) were obtained from the National Cancer Institute (NCI) Developmental Therapeutics Program Chemical Repository (34). The FDA-approved anticancer drug set is available from the NCI Developmental Therapeutics Program. […] The stock solutions were prepared in dimethyl sulfoxide (DMSO, Sigma-Aldrich, St. Louis, MO, cat. D2650) at 800-fold the tested concentration and stored at -70 degrees C prior to their use. All drugs and investigational agents were tested over a range starting from a high concentration at or near the clinical Cmax and decreasing in half-log increments. If the clinical Cmax for an agent had not been determined, the highest concentration tested was 10 microM.
2.3 Cell Culture. All cells were maintained in an incubator at 37 degrees C and 5% CO2 with 95% humidity. The PDC lines were cultured according to standard operating procedures established by the NCI PDMR. All PDCs were thawed and cultured in Matrigel-coated flasks prepared with a working solution of 1X Ham's F-12 nutrient mix, without supplementation (Invitrogen, cat. 11765054), 100 U/mL penicillin-streptomycin (Invitrogen, cat. 15140122), and 2.5% Matrigel (Corning Inc., cat. 354248) for the first three passages. The 857933-349-R-J2-PDC line was cultured in 6C/Colon 1B media, which includes advanced DMEM/F-12 (Thermo Fisher Scientific, cat. 12634028), 10 mM HEPES (Thermo Fisher Scientific, cat. 15630080), 1X GlutaMAX supplement (Thermo Fisher Scientific, cat. 35050061), 0.1 mg/mL primocin (InvivoGen, cat. ant-pm-2), 10% defined fetal bovine serum, heat inactivated (HyClone Laboratories Inc., cat. SH30070.03HI), 50% L-WRN conditioned media (ATCC, cat. CRL-3276), 1.25 mM N-Acetyl-L-cysteine (Sigma-Aldrich, cat. A9165), 10 mM nicotinamide (Sigma-Aldrich, cat. N0636), 1X B-27 supplement (Thermo Fisher Scientific, cat. 17504044), 1X N-2 supplement (Thermo Fisher Scientific, cat. 17502048), 10 microM Y-27632 dihydrochloride (Tocris Bioscience, cat. 1254), and 50 ng/mL human EGF recombinant protein (Thermo Fisher Scientific, cat. PHG0311). The 485176-168-R4-J1-PDC line was cultured in Panc media, which includes all 6C/Colon 1B media components plus 100 ng/mL human FGF-10 (Thermo Fisher Scientific, cat. 100-26), 500 nM SB-431542 (Selleckchem, cat. S1067), and gastrin (Tocris, cat. 3006).
[…]
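Also: spheroids exposed to the agents for seven days.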
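For viability, T/C in this document: percent of DMSO vehicle control viability which is 100%.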

`CCc1c2c(nc3ccc(O)cc13)-c1cc3c(c(=O)n1C2)COC(=O)[C@]3(O)CC` + CN(C)c1ccc(Nc2c3ccc(NC(=O)CCN4CCCC4)cc3nc3cc(NC(=O)CCN4CCCC4)ccc23)cc1 showed a pIC50 (second compound 0.0316 µM) of 8.53, a pIC50 (second compound 0.1 µM) of 8.57 and a pIC50 (second compound 0.316 µM) of 8.48. The pIC50 (second compound 1 µM) was 8.56, the pIC50 (second compound 3.16 µM) was 8.70 and the pIC50 (second compound 10 µM) was > 9.00. The viability, T/C (second compound 0.0316 µM, first compound 0.000999 µM) was 82.3%, the viability, T/C (second compound 0.0316 µM, first compound 0.00316 µM) was 46.1% and the viability, T/C (second compound 0.0316 µM, first compound 0.00999 µM) was 34.6%. It also gave a viability, T/C (second compound 0.0316 µM, first compound 0.0316 µM) of 35.3%, a viability, T/C (second compound 0.0316 µM, first compound 0.0999 µM) of 26.1% and a viability, T/C (second compound 0.0316 µM, first compound 0.316 µM) of 25.2%. For the same compound, the viability, T/C (second compound 0.1 µM, first compound 0.000999 µM) was 77.6%, the viability, T/C (second compound 0.1 µM, first compound 0.00316 µM) was 44.2% and the viability, T/C (second compound 0.1 µM, first compound 0.00999 µM) was 36.1%. The viability, T/C (second compound 0.1 µM, first compound 0.0316 µM) was 32%, the viability, T/C (second compound 0.1 µM, first compound 0.0999 µM) was 30.2% and the viability, T/C (second compound 0.1 µM, first compound 0.316 µM) was 25.6%. It also gave a viability, T/C (second compound 0.316 µM, first compound 0.000999 µM) of 73%, a viability, T/C (second compound 0.316 µM, first compound 0.00316 µM) of 48.2% and a viability, T/C (second compound 0.316 µM, first compound 0.00999 µM) of 38.1%. The viability, T/C (second compound 0.316 µM, first compound 0.0316 µM) was 35.3%, the viability, T/C (second compound 0.316 µM, first compound 0.0999 µM) was 29.4% and the viability, T/C (second compound 0.316 µM, first compound 0.316 µM) was 23.9%. It also gave a viability, T/C (second compound 1 µM, first compound 0.000999 µM) of 68.4%, a viability, T/C (second compound 1 µM, first compound 0.00316 µM) of 43.1% and a viability, T/C (second compound 1 µM, first compound 0.00999 µM) of 40.3%. The viability, T/C (second compound 1 µM, first compound 0.0316 µM) was 29.3%, the viability, T/C (second compound 1 µM, first compound 0.0999 µM) was 23.9% and the viability, T/C (second compound 1 µM, first compound 0.316 µM) was 21.6%. For the same compound, the viability, T/C (second compound 3.16 µM, first compound 0.000999 µM) was 60.8%, the viability, T/C (second compound 3.16 µM, first compound 0.00316 µM) was 41.8% and the viability, T/C (second compound 3.16 µM, first compound 0.00999 µM) was 34.9%. For the same compound, the viability, T/C (second compound 3.16 µM, first compound 0.0316 µM) was 28.1%, the viability, T/C (second compound 3.16 µM, first compound 0.0999 µM) was 23.5% and the viability, T/C (second compound 3.16 µM, first compound 0.316 µM) was 22.6%. The viability, T/C (second compound 10 µM, first compound 0.000999 µM) was 31%, the viability, T/C (second compound 10 µM, first compound 0.00316 µM) was 16% and the viability, T/C (second compound 10 µM, first compound 0.00999 µM) was 15.7%. It also gave a viability, T/C (second compound 10 µM, first compound 0.0316 µM) of 13.9%, a viability, T/C (second compound 10 µM, first compound 0.0999 µM) of 15.6% and a viability, T/C (second compound 10 µM, first compound 0.316 µM) of 11.5%.
